What all share (assay type): cell-based
The test system of assay [1] is Mtb. 234/2005. The assay can be described thus: microbe, parasite or virus in culture. The settings on record: Mycobacterium tuberculosis, read-out: MIC Mtb. 234/2005.
The subject of assay [2] is Enterococcus sp. J 14365/08. Kind of assay: Antibacterial microdilution broth method. The following applies: read-out: MIC/IC90 Enterococcus sp. J 14365/08. A digest of the protocol: (§1)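 Mueller-Hinton broth pH 7.4; M07-A07-based microdilution; cpds in DMSO, final 500–0.49 […]; inoculum 0.5 McFarland; 35 °C, dark, humid, 24 and 48 h; MIC = ≥90% growth reduction vs control, visual + A540.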

Assay [3] deals with Escherichia coli CCM 4517. The assay can be described thus: Antibacterial microdilution broth method. The following applies: read-out: MIC/IC90 E. coli CCM 4517. A digest of the protocol: as §1
In general terms: In broth dilution the organism is exposed to a series of concentrations in liquid medium.

In assay [4] the test system is Staphylococcus epidermidis H 6966/08. Kind of assay: Antibacterial microdilution broth method. The settings on record: read-out: MIC/IC90 S. epidermidis H 6966/08. A digest of the protocol: as §1
Assay [5] relates to methicillin-resistant Staphylococcus aureus H 5996/08 (MRSA). The assay can be described thus: Antibacterial microdilution broth method. The settings on record: read-out: MIC/IC90 MRSA H 5996/08. A digest of the protocol: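 MIC values reflect a 90% or greater drop in growth relative to control, judged by eye and by absorbance at 540 nm. Testing used a modified M07-A07 broth microdilution in pH 7.4 Mueller-Hinton medium over 500–0.49 […] final compound, with 24 h and 48 h incubation at 35 °C.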

Assay [6] relates to Mycobacterium kansasii 235/80. The assay can be described thus: Antimycobacterial MIC micromethod. The following applies: read-out: MIC M. kansasii 235/80.
Assay [7] deals with Gram-positive cocci including MRSA. The assay can be described thus: Antibacterial microdilution, summary for Gram-positive cocci. The following applies: Staphylococcus aureus, read-out: MICs against Gram-positive cocci. The protocol:
The in vitro antibacterial activity was assayed against eight Gram-positive and Gram-negative strains: Staphylococcus aureus CCM 4516/08, methicillin-resistant Staphylococcus aureus H 5996/08 (MRSA), Staphylococcus epidermidis H 6966/08, Enterococcus sp. J 14365/08; Escherichia coli CCM 4517, Klebsiella pneumoniae D 11750/08, ESBL-positive Klebsiella pneumoniae J 14368/08, and Pseudomonas aeruginosa CCM 1961.
The microdilution broth method modified according to standard M07-A07 in Mueller-Hinton broth (HiMedia Laboratories, Mumbai, India) adjusted to pH 7.4 (±0.2) was used. The tested compounds were dissolved in DMSO to the final concentrations ranging from […]. Benzylpenicillin (penicillin G) was used as a comparative drug. Bacterial inoculum in sterile water was prepared to match 0.5 McFarland scale ([…]). The minimum inhibitory concentrations were assayed as 90% (IC90) or higher reduction of growth when compared to the control. The determination of results was performed visually and spectrophotometrically (at 540 nm). The values of MICs were determined after 24 and 48 h of incubation in the darkness at 35 °C (±0.1) in a humid atmosphere.

For assay [8], the system named is Mtb. 9449/2006. The assay can be described thus: microbe, parasite or virus in culture. The settings on record: Mycobacterium tuberculosis, read-out: MIC Mtb. 9449/2006.
In assay [9] the test system is M. kansasii 6509/96 (clinically isolated strain). The assay can be described thus: Antimycobacterial MIC micromethod. The following applies: Mycobacterium kansasii, read-out: MIC M. kansasii 6509/96.
Assay [10] concerns Mycobacterium tuberculosis, M. avium and M. kansasii. The assay can be described thus: Antimycobacterial MIC, summary over all mycobacterial strains. The settings on record: range over all strains and times; read-out: MICs against all mycobacterial strains.

Converted amounts (≈) assume the structure as drawn. Read-outs that look alike come from different tables or passages of the source. Bounds are passed on as bounds.

As for `O=C(Oc1cc(Cl)ccc1C(=O)Nc1ccc(Br)cc1)c1ccc(C(F)(F)F)cc1` [1j], the MIC in assay [1] (336 h) is 2 µM (≈ 0.997 µg/mL); in [1] (504 h) it was 2 µM (≈ 0.997 µg/mL); in assay [2] (SP.J14365/08, 24 h) it was 1.95 µM (≈ 0.972 µg/mL); in assay [2] (SP.J14365/08, 48 h), 7.81 µM (≈ 3.89 µg/mL); in assay [3] (CCM4517, 24 h), 250 µM (≈ 125 µg/mL); in [3] (CCM4517, 48 h) it was greater than 250 µM. For the same compound, the MIC in assay [4] (H6966/08, 24 h) amounted to 0.49 µM (≈ 0.244 µg/mL); in assay [4] (H6966/08, 48 h) it was 0.98 µM (≈ 0.489 µg/mL); in [5] (24 h) it was 0.49 µM (≈ 0.244 µg/mL); in [5] (48 h), 0.98 µM (≈ 0.489 µg/mL); in assay [6] (235/80, 168 h, 7 d), 1 µM (≈ 0.499 µg/mL); in assay [6] (235/80, 336 h, 14 d), 4 µM (≈ 1.99 µg/mL). The MIC was 4 µM (≈ 1.99 µg/mL) in [6] (235/80, 504 h, 21 d); less than 1 µM in [7]; 2 µM (≈ 0.997 µg/mL) in assay [8] (336 h); 2 µM (≈ 0.997 µg/mL) in [8] (504 h); 2 µM (≈ 0.997 µg/mL) in [9] (168 h, 7 d); 4 µM (≈ 1.99 µg/mL) in [9] (336 h, 14 d). In [9] (504 h, 21 d), the MIC is 4 µM (≈ 1.99 µg/mL).
Regarding `O=C(Oc1ccc(Cl)cc1C(=O)Nc1ccc(C(F)(F)F)cc1)c1ccc(C(F)(F)F)cc1` [1o, 4-chloro-2-[4-(trifluoromethyl)phenylcarbamoyl]phenyl 4-(trifluoromethyl)benzoate], the MIC is 0.5 µM (≈ 0.244 µg/mL) in assay [1] (336 h); 1 µM (≈ 0.488 µg/mL) in assay [1] (504 h); 7.81 µM (≈ 3.81 µg/mL) in [2] (SP.J14365/08, 24 h); 62.5 µM (≈ 30.5 µg/mL) in assay [2] (SP.J14365/08, 48 h); greater than 125 µM in assay [3] (CCM4517, 24 h); greater than 125 µM in assay [3] (CCM4517, 48 h). The MIC turned out to be 3.9 µM (≈ 1.9 µg/mL) in assay [4] (H6966/08, 24 h); 7.81 µM (≈ 3.81 µg/mL) in assay [4] (H6966/08, 48 h); 3.9 µM (≈ 1.9 µg/mL) in [5] (24 h); 7.81 µM (≈ 3.81 µg/mL) in [5] (48 h); 1 µM (≈ 0.488 µg/mL) in [6] (235/80, 168 h, 7 d); 2 µM (≈ 0.976 µg/mL) in assay [6] (235/80, 336 h, 14 d). Also, the MIC was 2 µM (≈ 0.976 µg/mL) in assay [6] (235/80, 504 h, 21 d); 1 to 4 µM (≈ 0.488 to 1.95 µg/mL) in assay [10]; 1 µM (≈ 0.488 µg/mL) in assay [8] (336 h); 1 µM (≈ 0.488 µg/mL) in assay [8] (504 h); 1 µM (≈ 0.488 µg/mL) in [9] (168 h, 7 d); 2 µM (≈ 0.976 µg/mL) in assay [9] (336 h, 14 d). Moreover, the MIC in assay [9] (504 h, 21 d) was 2 µM (≈ 0.976 µg/mL).
Take `O=C(Oc1ccc(Cl)cc1C(=O)Nc1ccc(Cl)c(Cl)c1)c1ccc(C(F)(F)F)cc1` [1e]: the MIC in assay [1] (336 h) was 1 µM (≈ 0.489 µg/mL); in assay [1] (504 h), 2 µM (≈ 0.977 µg/mL); in assay [2] (SP.J14365/08, 24 h), 0.49 µM (≈ 0.239 µg/mL); in assay [2] (SP.J14365/08, 48 h) it was 3.9 µM (≈ 1.91 µg/mL); in assay [3] (CCM4517, 24 h) it was greater than 500 µM; in assay [3] (CCM4517, 48 h), greater than 500 µM. The MIC in assay [4] (H6966/08, 24 h) was 0.49 µM (≈ 0.239 µg/mL); in assay [4] (H6966/08, 48 h), 0.98 µM (≈ 0.479 µg/mL); in assay [5] (24 h), 0.49 µM (≈ 0.239 µg/mL); in assay [5] (48 h), 0.98 µM (≈ 0.479 µg/mL); in assay [6] (235/80, 168 h, 7 d) it was 1 µM (≈ 0.489 µg/mL); in assay [6] (235/80, 336 h, 14 d), 2 µM (≈ 0.977 µg/mL). Moreover, the MIC in assay [6] (235/80, 504 h, 21 d) is 4 µM (≈ 1.95 µg/mL); in assay [7], less than 1 µM; in [8] (336 h), 2 µM (≈ 0.977 µg/mL); in [8] (504 h) it was 2 µM (≈ 0.977 µg/mL); in assay [9] (168 h, 7 d), 1 µM (≈ 0.489 µg/mL); in assay [9] (336 h, 14 d), 2 µM (≈ 0.977 µg/mL). Moreover, the MIC in assay [9] (504 h, 21 d) was found to be 4 µM (≈ 1.95 µg/mL).

For the origin of these results see article PMC6270420, “Antibacterial Activity of Salicylanilide 4-(Trifluoromethyl)benzoates” (Molecules, 2013).
